Entries after “also recorded” stand apart in the source; their conditions may differ.
How the values were obtained:
[1] = system: nuclear factor kappa B; settings: intact cells; cited from earlier work
[2] = system: esterase; experiment: Enzymatic hydrolysis of PDD-NSAIDs by esterase; type: in vitro ADME; settings: for time within which the compound was decomposed into two compounds: esterase, PBS buffer, as described for compound 12
Experimental: The resulting solution was put in a water bath (37° C.) for 30 min and then at room temperature overnight.

[3] = system: male Sprague-Dawley rats (stomach, gastric lesions); experiment: Gastric erosions in the rat gastropathy model; type: in vivo; settings: oral; for length of the lesions (most of the lesions): corpus of the stomach; for number of gastric lesions, dose dependence: naproxen 15 and 30 mg/kg, PDD-Naproxen 27 & 54 mg/kg (equimolar)
[4] = system: Lewis male rats (M. tuberculosis adjuvant-induced arthritis); experiment: Chronic inflammation: rat adjuvant arthritis model; type: in vivo; settings: for reduction of swelling compared to control by day 15: oral high doses: naproxen 10 mg/kg, days 5-8 and 11-14
Experimental: Thus, paw volume increases (measured with a Plethysmometer) are reported as a function of time, and were measured in the injected feet of Lewis male rats in which arthritis was induced by intradermel injection of adjuvant into the footpad.
NSAIDs are useful in both chronic and acute inflammatory conditions. Efficacy in chronic inflammation can be estimated using the rat adjuvant arthritis model (Blackham et al. supra). In this model Lewis male rats (175-250 g) were injected intradermally in the footpad with M. tuberculosis powder suspended in mineral oil at 5 mg/ml. Progressive swelling of the uninjected paw and ankle joint between days 11 and 15 was measured by plethysmometry.

[5] = system: gastrointestinal toxicity; settings: in vivo; cited from earlier work
[6] = system: COX-2; settings: cited from earlier work
[7] = system: male Sprague-Dawley rats (carrageenan-injected paw); experiment: Acute inflammation: rat carrageenan-induced hindlimb edema model; type: in vivo
Experimental: Efficacy of NSAIDs in acute inflammation can be estimated by using intraplantar injection of carrageenan in the rat. Male Sprague-Dawley rats (200-250 g) were injected intradermally in the footpad with 50 μl of a 1% carrageenan solution in PBS. Swelling of the injected paw was measured at 2, 3, 5 & 7 hours using a plethysmometer.

[8] = Plasma pharmacokinetics of naproxen following oral administration of PDD-Naproxen or naproxen in rats
[9] = system: cancer patients; settings: cancer patients receiving adriamycin chemotherapy; cited from earlier work
[10] = iron-ICRF-187 complex, Fenton reaction; cited from earlier work
[11] = PDD-Naproxen (NOX-319) 18 mg/kg

S=C(S)N1CCCC1 [pyrrolidine dithiocarbamate]
inhibition of nuclear factor kappa B [1]: potent inhibitors of nuclear factor kappa B

COc1ccc2c(c1)c(CC(=O)OCCCOC(=O)[C@@H]1CCCN1C(=S)SSC(=S)N1CCC[C@H]1C(=O)OCCCOC(=O)Cc1c(C)n(C(=O)c3ccc(Cl)cc3)c3ccc(OC)cc13)c(C)n2C(=O)c1ccc(Cl)cc1 [Compound 24]
time within which the compound was decomposed into two compounds [2]: ≤ 5 h

COc1ccc2cc([C@H](C)C(=O)O)ccc2c1 [Naproxen, (S)-(+)-methoxy-α-methyl-2-naphthaleneacetic acid, reference compound]
length of the lesions (most of the lesions) [3]: less than 2 mm | number of gastric lesions, dose dependence ([3]; 3 h): dose-related number of lesions | reduction of swelling compared to control by day 15 [4, 11]: approximately 70%

COc1ccc2cc(CCC(C)=O)ccc2c1 [nabumetone]
gastrointestinal toxicity relative to other NSAIDs on the market [5]: reduced gastrointestinal toxicity | selectivity for COX-2 [6]: marked selectivity for COX-2

CC(C)Cc1ccc(C(C)C(=O)OCCCOC(=O)[C@@H]2CCCN2C(=S)SSC(=S)N2CCC[C@H]2C(=O)OCCCOC(=O)C(C)c2ccc(CC(C)C)cc2)cc1 (stereo partly shown) [Compound 16]
time within which the compound was decomposed into two compounds [2]: ≤ 5 h

COc1ccc2cc(C(C)C(=O)OCCCOC(=O)C3CCCN3C(=S)SSC(=S)N3CCCC3C(=O)OCCCOC(=O)C(C)c3ccc4cc(OC)ccc4c3)ccc2c1 (stereo not shown) [PDD-Naproxen]
decomposition by esterase ([2]; 33.3 units esterase in PBS buffer, 37° C. for 30 min, then room temperature overnight): decomposed into two compounds | gastric safety / tendency to cause gastric erosions, overall ([3]; relative to naproxen): has the ability to reduce the number of erosions in the corpus of the stomach; also recorded: tendency to cause gastric erosions is reduced; also recorded: improved gastric safety | number of gastric erosions, low dose ([3]; PDD-Naproxen 27 mg/kg vs naproxen 15 mg/kg, 6 animals in each group): fewer erosions than the low dose of naproxen, but statistical significance was not achieved | number of gastric lesions, high dose ([3]; PDD-Naproxen 54 mg/kg vs naproxen 30 mg/kg, 3 h): significantly fewer lesions than the high dose naproxen group (ANOVA; p<0.005) | length of the lesions (most of the lesions) [3]: less than 2 mm | number of gastric lesions, dose dependence ([3]; 3 h): dose-related number of lesions | reduction in paw swelling ([7]; oral 1 h before carrageenan, naproxen 10 mg/kg or PDD-Naproxen 18 mg/kg (equimolar)): reduced inflammation significantly at 2 and 3 hours, but started to wear off by 5 hours | acute antiinflammatory activity, overall ([7]; oral, carrageenan model): orally active in rats, but slightly less effective vs acute inflammation than the parent drug; also recorded: antiinflammatory activity similar to naproxen; also recorded: alleviation of acute inflammation | reduction of swelling compared to control by day 15 [4, 11]: approximately 70% | chronic antiinflammatory effect, overall ([4]; oral, equimolar doses, vs naproxen): antiinflammatory activity similar to naproxen; also recorded: antiinflammatory effects equal to those of naproxen; also recorded: effectiveness of PDD-Naproxen in the treatment of adjuvant-induced arthritis | effect on swelling by day 15, lower doses ([4]; oral, naproxen 1 mg/kg, PDD-Naproxen (NOX-319) 1.8 mg/kg): slight effect by day 15 | reduction of swelling on days 13 through 15, high doses ([4]; oral, naproxen 10 mg/kg, PDD-Naproxen (NOX-319) 18 mg/kg): comparable reduction of swelling | naproxen pharmacokinetic profile, overall ([8]; oral or IV, vs naproxen itself): better naproxen pharmacokinetic profiles than naproxen itself | AUCinf comparison, oral ([8]; oral, PDD-Naproxen vs naproxen): no significant difference

C[C@@H](CN1CC(=O)NC(=O)C1)N1CC(=O)NC(=O)C1 [ICRF-187]
removal of iron from the anthracycline-iron complex, preventing cardiac toxicity [9]: effective for the removal of iron from the anthracycline-iron complex, therefore preventing the cardiac toxicity | promotion of hydroxyl radical generation [10]: very effective at promoting hydroxyl radical generation

CC(C(=O)OCCCOC(=O)[C@@H]1CCCN1C(=S)SSC(=S)N1CCC[C@H]1C(=O)OCCCOC(=O)C(C)c1cccc(C(=O)c2ccccc2)c1)c1cccc(C(=O)c2ccccc2)c1 (stereo partly shown) [Compound 20]
time within which the compound was decomposed into two compounds [2]: ≤ 5 h

Reference: US6274627A, “Conjugates of dithiocarbamate disulfides with pharmacologically active agents and uses therefor” (Medinox, Inc., priority 1999, dated 2001)
